Assay results published in EP4702978A1, “AGENT FOR TREATING OR PREVENTING AMYOTROPHIC LATERAL SCLEROSIS” (Socium Inc., priority 2023, dated 2024).
Entries after “also recorded” stand apart in the source; their conditions may differ. Like-named read-outs stand apart in the source and are kept apart here.

Columns and labels:
[1] = Reported pharmacokinetics of D-cycloserine after oral administration to humans; type: in vivo; conditions: estimated; 15 mg orally administered twice daily
[2] = test system: Neuro2a cells transfected with the TDP-43 gene; test: Inhibition of cell death in neuronally differentiated Neuro2a cells transfected with the TDP-43 gene (Example 1); type: cell-based, Mouse; conditions: evaluated 7 days after transfection; for EC50: Mus musculus, N2a, compound added 5 hours after transfection, 10-10,000 nmol/L, relative viability, read-out: EC50 (inhibition of cell death in nerve cells forcibly expressing TDP-43); for inhibition of cell death: cells transfected with the TDP-43 gene, Figures 3C and 4
Protocol: (§1) Mouse neuroblastoma (Neuro2a) cells were seeded on a dish. The Neuro2a cells were cultured in a culture medium containing DMEM+10% FBS at 37°C in the presence of 5% CO2. On the first day after seeding, differentiation into neurons was initiated. Differentiation into neurons was performed in a culture medium containing DMEM+2% FBS+20 µmol/L retinoic acid. On the fourth day after seeding, cells were transfected with synthesized TDP-43 mRNA by a lipofection method. Cells were sampled at 6 hours, 9 hours, 12 hours, 15 hours, 18 hours, and 21 hours after transfection. […] For sampling, cells were lysed in an RIPA buffer and centrifuged at 22,000 Xg for 30 minutes at 4°C, the supernatant was used as the soluble fraction, the precipitate was used as the insoluble fraction, and equal volumes of a 2×SDS sample buffer were added to the respective fractions and heated at 95°C for 5 minutes to prepare electrophoresis samples. The electrophoresis samples were subjected to electrophoresis using a polyacrylamide gel, TDP-43 was then transferred to a PVDF membrane. TDP-43 was detected through chemiluminescence using anti-TDP-43 antibodies as primary antibodies and HRP-conjugated anti-rabbit antibodies as secondary antibodies. […] The insoluble fractions of TDP-43 indicate the aggregation of TDP-43.
Neuro2a cells were seeded on a dish. On the first day after seeding, differentiation into neurons was initiated. On the fourth day after seeding, cells were transfected with the TDP-43 gene. […] In addition, as a control, 10 nmol/L, 50 nmol/L, 100 nmol/L, 500 nmol/L, 1,000 nmol/L, 5,000 nmol/L, or 10,000 nmol/L of ropinirole was added to a culture medium.
The proportion of dead cells was evaluated 7 days after the cells were transfected with the TDP-43 gene.

[3] = cited from earlier work
TDP-43 = test: Soluble and insoluble fractions of TDP-43 in TDP-43-transfected Neuro2a cells, Western blot (Example 2); type: cell-based, Mouse; conditions: 10 µmol/L added 6 hours after transfection, cultured for 12 hours; for soluble fractions versus insoluble fractions of TDP-43 in the cells: Figure 5; for proportion of insoluble fractions based on a total number of soluble fractions and insoluble fractions of TDP-43: Figure 6
Protocol: as §1
Neuro2a cells were seeded on a dish. On the first day after seeding, differentiation into neurons was initiated. On the fourth day after seeding, cells were transfected with the TDP-43 gene.

[4] = test system: TDP-43 in motor neurons derived from iPS cells of ALS patients; test: Soluble and insoluble fractions of TDP-43 in motor neurons derived from iPS cells of ALS patients, Western blot (Example 3); type: cell-based, human; conditions: 10 µmol/L, cultured for 20 days; for bands for soluble and insoluble fractions of TDP-43: Figure 7; for average proportion of insoluble fractions of TDP-43: three experiments, DMSO control about 46.1%, Figure 8
[5] = test system: TDP-43 in motor neurons derived from iPS cells of healthy subjects; test: Soluble and insoluble fractions of TDP-43 in motor neurons derived from iPS cells of healthy subjects, Western blot (Example 3); type: cell-based, human; conditions: 10 µmol/L, cultured for 20 days, Figure 7
[6] = cited from earlier work; remark: listed apart in the source

## N[C@@H]1CONC1=O [D-cycloserine, (4R)-4-Amino-1,2-oxazolidin-3-one]
[1]
  trough value: > 128 nmol/L
[2]
  EC50: 128 nM
  inhibition of cell death: cell death was inhibited; also recorded: exhibited an effect of inhibiting cell death in a concentration-dependent manner
[3]; 150 mg administered to humans
  side effects: causes headaches
[3]; 250 mg administered to humans in order to treat tuberculosis
  side effects: serious side effects such as epileptiform seizure and mental confusion
TDP-43
  soluble fractions versus insoluble fractions of TDP-43 in the cells: the number of soluble fractions of TDP-43 was larger than the number of insoluble fractions of TDP-43
  proportion of insoluble fractions based on a total number of soluble fractions and insoluble fractions of TDP-43: less than half
[4]
  bands for soluble and insoluble fractions of TDP-43: bands for soluble fractions of TDP-43 were clearly observed, and bands for insoluble fractions were unclear
  average proportion of insoluble fractions of TDP-43: about 17.4%
[5]
  bands for soluble and insoluble fractions of TDP-43: bands for soluble fractions of TDP-43 were clearly observed, and bands for insoluble fractions were unclear
[6]; 15 mg orally administered to humans, read-out: maximum blood concentration (Cmax)
  Cmax: ~5.6 µM
[6]; reported
  half-life: about 10 hours

## N[C@H]1CONC1=O [L-cycloserine, (4S)-4-amino-1,2-oxazolidin-3-one]
[2]
  EC50: 237 nM
  inhibition of cell death: exhibited an effect of inhibiting cell death in a concentration-dependent manner
TDP-43
  soluble fractions versus insoluble fractions of TDP-43 in the cells: the number of soluble fractions of TDP-43 was larger than the number of insoluble fractions of TDP-43
  proportion of insoluble fractions based on a total number of soluble fractions and insoluble fractions of TDP-43: less than half

## CC(=O)NCCCS(=O)(=O)O [acamprosate, 3-(acetylamino)propylsulfonic acid]
[3]; administered to humans, dose not stated
  side effects: anaphylaxis associated with symptoms such as generalized skin rash, rash, urticaria, stomatitis, laryngospasm, and shortness of breath; also recorded: angioedema associated with symptoms such as tongue swelling and lymphadenopathy

## CCCN(CCC)CCc1cccc2c1CC(=O)N2 [ropinirole]
[2]
  EC50: 198 nM
[4]
  bands for soluble and insoluble fractions of TDP-43: bands for soluble fractions of TDP-43 were clearly observed, and bands for insoluble fractions were unclear
  average proportion of insoluble fractions of TDP-43: about 19.3%
[5]
  bands for soluble and insoluble fractions of TDP-43: bands for soluble fractions of TDP-43 were clearly observed, and bands for insoluble fractions were unclear
